US20240050399A1, “PHARMACEUTICAL COMPOSITIONS, COMPRISING A COMBINATION OF SELECT CARRIERS AND […] ANTIPATHOGENS” (EpitoGenesis, Inc., priority 2020, published 2024)
In brackets after ≈: the same amount, converted by molar mass.

Test system: SARS-CoV-2 USA-WA1/2020
Experiment: Neutralization assay of SARS-CoV-2 with EGCG, quantified by Avicel plaque reduction assay on VeroE6 cells
Assay type: cell-based
Settings: for IC50: normalized against control (virus in DMEM)

O=C(O[C@@H]1Cc2c(O)cc(O)cc2O[C@@H]1c1cc(O)c(O)c(O)c1)c1cc(O)c(O)c(O)c1 [EGCG, epigallocatechin gallate]
in vitro antiviral activity on vero cells infected with SARS-CoV-2 (FIG. 1, plaque reduction): strong in vitro antiviral activity | IC50 (dilution series 1): 42.65 µg/mL (≈ 93 µM) | IC50 (dilution series 2): 32.89 µg/mL (≈ 71.8 µM) | IC50 (dilution series 3): 36.09 µg/mL (≈ 78.7 µM)
